Experimental data reported in ChEMBL document CHEMBL5729561, “Compounds and uses thereof” (2023).

Assay: On day 0 cells were seeded in 30 μL media into each well of 384-well cell culture plates. The seeding density was 8000 cells/well. On day 1, cells were treated with 30 nL DMSO or 30 nL of 3-fold serially DMSO-diluted compounds (10 points in duplicates with 1 μM as final top dose). Subsequently plates were incubated for 6 hours in a standard tissue culture incubator and equilibrated at room temperature for 15 minutes. Nanoluciferase activity was measured by adding 15 μL of freshly prepared Nano-Glo Luciferase Assay Reagent (Promega N1130), shaking the plates for 10 minutes and reading the bioluminescence using an EnVision reader.
Assay type: cell-based
For COc1cc(-c2cn(C)c(=O)c3cnccc23)cc(OC)c1CN1CCN(C(=O)C2CC2CNC(=O)COc2ccc3c(c2)C(=O)N(C2CCC(=O)NC2=O)C3=O)CC1 (stereo not drawn), the IC50 was “in the range around 550 nM”.
For COc1cc(-c2cn(C)c(=O)c3cnccc23)cc(OC)c1CN1CC2C1CCN2C(=O)CCOCCOc1cccc2c1C(=O)N(C1CCC(=O)NC1=O)C2=O (stereo not drawn), the IC50 was under 10 nM.
Work on COc1cc(-c2cn(C)c(=O)c3cnccc23)cc(OC)c1CN1CC[C@H]1C(=O)NCCN(C)CCNC(=O)COc1ccc2c(c1)C(=O)N(C1CCC(=O)NC1=O)C2=O (stereo partly drawn) yielded an IC50 of over 1000 nM.
COc1cc(-c2cn(C)c(=O)c3cnccc23)cc(OC)c1CN1CCC2(CC1)CN(C(=O)CCCOc1cccc3c1C(=O)N(C1CCC(=O)NC1=O)C3=O)CCO2 (stereo not drawn) gave an IC50 of under 10 nM.
COc1cc(-c2cn(C)c(=O)c3cnccc23)cc(OC)c1CN1CC[C@@H]1C(=O)NCCCCCCCCNc1cccc2c1C(=O)N(C1CCC(=O)NC1=O)C2=O (stereo partly drawn) gave an IC50 of under 10 nM.
COc1cc(-c2cn(C)c(=O)c3cnccc23)cc(OC)c1ON1CCC2(CCN(C(=O)CCOCCOc3cccc4c3C(=O)N(C3CCC(=O)NC3=O)C4=O)CC2)C1 (stereo not drawn) showed an IC50 of under 10 nM.
In the case of COc1cc(-c2cn(C)c(=O)c3cnccc23)cc(OC)c1CN(C)CC(=O)N1CCC(C2CCN(C(=O)COc3cccc4c3C(=O)N(C3CCC(=O)NC3=O)C4=O)CC2)CC1 (stereo not drawn), the IC50 is reported as “in the range around 55 nM”.
With COc1cc(-c2cn(C)c(=O)c3cnccc23)cc(OC)c1CN1CC(CCNC(=O)CCOCCOc2ccc3c(c2)C(=O)N(C2CCC(=O)NC2=O)C3=O)C1 (stereo not drawn) the IC50 was “in the range around 550 nM”.
For COc1cc(-c2cn(C)c(=O)c3cnccc23)cc(OC)c1CN(C)C12CC(C(=O)NCCOCCOCCNc3cccc4c3C(=O)N(C3CCC(=O)NC3=O)C4=O)(C1)C2 (stereo not drawn), the IC50 was under 10 nM.
With COc1cc(-c2cn(C)c(=O)c3cnccc23)cc(OC)c1CN1CC2(C1)CN(C(=O)COc1cccc3c1C(=O)N(C1CCC(=O)NC1=O)C3=O)C2 (stereo not drawn) the IC50 was “in the range around 550 nM”.
For COc1cc(-c2cn(C)c(=O)c3cnccc23)cc(OC)c1CN(C)CC1CC2(CCN(C(=O)CCOCCOc3cccc4c3C(=O)N(C3CCC(=O)NC3=O)C4=O)CC2)CO1 (stereo not drawn), the IC50 was “in the range around 55 nM”.
For COc1cc(-c2cn(C)c(=O)c3cnccc23)cc(OC)c1CN1CC(OCc2cn(CCCCOc3ccc4c(c3)C(=O)N(C3CCC(=O)NC3=O)C4=O)nn2)C1 (stereo not drawn), the IC50 was “in the range around 55 nM”.
For COc1cc(-c2cn(C)c(=O)c3cnccc23)cc(OC)c1CN(C)CC12CC(NC(=O)CCCCOc3cccc4c3C(=O)N(C3CCC(=O)NC3=O)C4=O)(C1)C2 (stereo not drawn), the IC50 was under 10 nM.
In the case of COc1cc(-c2cn(C)c(=O)c3cnccc23)cc(OC)c1CN(C)CC1CC12CCN(C(=O)CCOCCOc1cccc3c1C(=O)N(C1CCC(=O)NC1=O)C3=O)CC2 (stereo not drawn), the IC50 is reported as “in the range around 55 nM”.
In the case of COc1cc(-c2cn(C)c(=O)c3cnccc23)cc(OC)c1CN(C)Cc1cn(CCOc2ccc3c(c2)C(=O)N(C2CCC(=O)NC2=O)C3=O)nn1 (stereo not drawn), the IC50 is reported as “in the range around 550 nM”.
With COc1cc(-c2cn(C)c(=O)c3cnccc23)cc(OC)c1CN1CCC(OCc2cn(CCOCCOc3ccc4c(c3)C(=O)N(C3CCC(=O)NC3=O)C4=O)nn2)CC1 (stereo not drawn) the IC50 was “in the range around 55 nM”.
With COc1cc(-c2cn(C)c(=O)c3cnccc23)cc(OC)c1CN(C)CCc1cn(CCCCCOc2ccc3c(c2)C(=O)N(C2CCC(=O)NC2=O)C3=O)nn1 (stereo not drawn) the IC50 was under 10 nM.
For COc1cc(-c2cn(C)c(=O)c3cnccc23)cc(OC)c1CN1CC2(C1)CN(C(=O)CCCOc1cccc3c1C(=O)N(C1CCC(=O)NC1=O)C3=O)C2 (stereo not drawn), the IC50 was “in the range around 55 nM”.
Molecule COc1cc(-c2cn(C)c(=O)c3cnccc23)cc(OC)c1CN1CC(C(=O)NCCCCCCCCNc2cccc3c2C(=O)N(C2CCC(=O)NC2=O)C3=O)C1 (stereo not drawn) has an IC50 of under 10 nM.
With COc1cc(-c2cn(C)c(=O)c3cnccc23)cc(OC)c1CN1CC(C(=O)NCCCCCCCCNc2cccc3c2C(=O)N(C2CCC(=O)N(C)C2=O)C3=O)C1 (stereo not drawn) the IC50 was over 1000 nM.
In the case of COc1cc(-c2cn(C)c(=O)c3cnccc23)cc(OC)c1CN1CCC2(CCN(C(=O)CCOCCOc3ccc4c(c3)C(=O)N(C3CCC(=O)NC3=O)C4=O)C2)C1 (stereo not drawn), the IC50 is reported as “in the range around 55 nM”.
Molecule COc1cc(-c2cn(C)c(=O)c3cnccc23)cc(OC)c1CN(C)CC12CC(C(=O)NCCCCCNc3cccc4c3C(=O)N(C3CCC(=O)NC3=O)C4=O)(C1)C2 (stereo not drawn) has an IC50 of under 10 nM.
For COc1cc(-c2cn(C)c(=O)c3cnccc23)cc(OC)c1ON1CC2(CC(NC(=O)CCOCCOc3ccc4c(c3)C(=O)N(C3CCC(=O)NC3=O)C4=O)C2)C1 (stereo not drawn), the IC50 was “in the range around 550 nM”.
Work on COc1cc(-c2cn(C)c(=O)c3cnccc23)cc(OC)c1CN(C)C1CCC12CCN(C(=O)CCOCCOc1ccc3c(c1)C(=O)N(C1CCC(=O)NC1=O)C3=O)CC2 (stereo not drawn) yielded an IC50 of under 10 nM.
For COc1cc(-c2cn(C)c(=O)c3cnccc23)cc(OC)c1CN1CCC(OCc2cn(CCCCOc3ccc4c(c3)C(=O)N(C3CCC(=O)NC3=O)C4=O)nn2)C1 (stereo not drawn), the IC50 was “in the range around 55 nM”.
With COc1cc(-c2cn(C)c(=O)c3cnccc23)cc(OC)c1CN1CCC(OCc2cn(CCOCc3ccc4c(c3)C(=O)N(C3CCC(=O)NC3=O)C4=O)nn2)CC1 (stereo not drawn) the IC50 was “in the range around 55 nM”.
With COc1cc(-c2cn(C)c(=O)c3cnccc23)cc(OC)c1CN1CC(C(=O)NCCS(=O)(=O)CCNc2cccc3c2C(=O)N(C2CCC(=O)NC2=O)C3=O)C1 (stereo not drawn) the IC50 was “in the range around 55 nM”.
In the case of COc1cc(-c2cn(C)c(=O)c3cnccc23)cc(OC)c1CN(C)CC1CC2(C1)CN(C(=O)CCOCCOc1ccc3c(c1)C(=O)N(C1CCC(=O)NC1=O)C3=O)C2 (stereo not drawn), the IC50 is reported as “in the range around 550 nM”.
Work on COc1cc(-c2cn(C)c(=O)c3cnccc23)cc(OC)c1CN(C)NC(=O)CCCCC(=O)NC12CC(Nc3cccc4c3C(=O)N(C3CCC(=O)NC3=O)C4=O)(C1)C2 (stereo not drawn) yielded an IC50 of under 10 nM.
In the case of COc1cc(-c2cn(C)c(=O)c3cnccc23)cc(OC)c1CN1CC(OCc2cn(CCOc3ccc4c(c3)C(=O)N(C3CCC(=O)NC3=O)C4=O)nn2)C1 (stereo not drawn), the IC50 is reported as “in the range around 55 nM”.
With COc1cc(-c2cn(C)c(=O)c3cnccc23)cc(OC)c1CN1CC2(CCN(C(=O)CCOCCOc3ccc4c(c3)C(=O)N(C3CCC(=O)NC3=O)C4=O)CC2)C1 (stereo not drawn) the IC50 was “in the range around 55 nM”.
Work on COc1cc(-c2cn(C)c(=O)c3cnccc23)cc(OC)c1CN1CC2C1CCN2C(=O)CCOCCOc1ccc2c(c1)C(=O)N(C1CCC(=O)NC1=O)C2=O (stereo not drawn) yielded an IC50 of under 10 nM.
With COc1cc(-c2cn(C)c(=O)c3cnccc23)cc(OC)c1CN1CCC(C2CCN(C(=O)CCOCCOc3cccc4c3C(=O)N(C3CCC(=O)NC3=O)C4=O)C2)CC1 (stereo not drawn) the IC50 was “in the range around 55 nM”.
In the case of COc1cc(-c2cn(C)c(=O)c3cnccc23)cc(OC)c1CN1CCC2(C[C@@H]2NC(=O)CCOCCOc2cccc3c2C(=O)N(C2CCC(=O)NC2=O)C3=O)C1 (stereo partly drawn), the IC50 is reported as “in the range around 550 nM”.
With COc1cc(-c2cn(C)c(=O)c3cnccc23)cc(OC)c1CNCCOCC(=O)N1CC(COc2ccc3c(c2)C(=O)N(C2CCC(=O)NC2=O)C3=O)C1 (stereo not drawn) the IC50 was “in the range around 550 nM”.
COc1cc(-c2cn(C)c(=O)c3cnccc23)cc(OC)c1CN1CCC(OC2CCN(C(=O)CCOCCOc3ccc4c(c3)C(=O)N(C3CCC(=O)NC3=O)C4=O)C2)CC1 (stereo not drawn) gave an IC50 of under 10 nM.
With COc1cc(-c2cn(C)c(=O)c3cnccc23)cc(OC)c1CN1CC2(CCC2NC(=O)CCOCCOc2ccc3c(c2)C(=O)N(C2CCC(=O)NC2=O)C3=O)C1 (stereo not drawn) the IC50 was “in the range around 550 nM”.
With COc1cc(-c2cn(C)c(=O)c3cnccc23)cc(OC)c1CN1CCC(OC2CCN(C(=O)CCOCCOc3cccc4c3C(=O)N(C3CCC(=O)NC3=O)C4=O)C2)CC1 (stereo not drawn) the IC50 was “in the range around 55 nM”.
